pIC50: −log10 of the molar value.
Biological target: T1, full-length human PKCι (Homo sapiens, UniProt P41743)
T1 construct: Recombinant, full-length human PKCι expressed in Sf21 insect cells is also commercially available; purchased; host or cells: Sf21 insect cells
T1 sequence (P41743 1-596): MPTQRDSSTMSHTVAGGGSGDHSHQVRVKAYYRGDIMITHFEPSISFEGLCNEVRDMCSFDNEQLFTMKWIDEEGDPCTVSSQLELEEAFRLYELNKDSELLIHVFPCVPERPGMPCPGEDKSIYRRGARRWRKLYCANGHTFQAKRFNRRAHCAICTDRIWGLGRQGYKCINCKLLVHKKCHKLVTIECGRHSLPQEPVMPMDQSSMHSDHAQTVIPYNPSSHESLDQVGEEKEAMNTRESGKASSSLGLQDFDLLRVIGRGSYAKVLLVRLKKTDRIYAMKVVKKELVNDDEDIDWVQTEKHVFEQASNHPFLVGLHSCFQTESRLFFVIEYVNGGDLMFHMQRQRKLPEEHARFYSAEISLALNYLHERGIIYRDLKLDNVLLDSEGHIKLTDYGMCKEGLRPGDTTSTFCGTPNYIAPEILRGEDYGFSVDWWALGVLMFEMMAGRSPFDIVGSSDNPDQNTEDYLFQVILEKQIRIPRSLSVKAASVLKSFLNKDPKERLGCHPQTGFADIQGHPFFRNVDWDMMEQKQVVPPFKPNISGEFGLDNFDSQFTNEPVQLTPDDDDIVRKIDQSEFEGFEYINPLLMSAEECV
Test: PKCι IC50 IMAP assay, full-length PKCι at 150 μM ATP
Format: biochemical
Settings: read-out: IC50 in IMAP assay against full length PKCi at 150 μM ATP
Text: Assays are based on the ability of PKCι to phosphorylate a commercially available peptide substrate in vitro. The peptide substrate is FAM-PKCε pseudopeptide derived peptide, and comprises the amino acid sequence 5FAM-[…]-NH2. Recombinant, full-length human PKCι expressed in Sf21 insect cells is also commercially available. Recombinant, kinase-domain human PKCι is expressed and purified in-house.
The procedure below explains how dose response curves for inhibitors of PKCι are obtained. The screen described is for a 384 well format but the assay can be adapted to 1536 or other formats as required.
Compounds to be tested are dissolved in 100% DMSO. Compounds are diluted as required to give a final concentration of 4% DMSO (v/v) in the assay. 1 μl is plated into 384 well black low-binding flat bottomed assay plates which are used immediately. Dilutions and additions of compound to assay plates are carried out using Matrix WellMate® and Matrix PlateMate® Plus liquid handling systems.
On the day of the screen PKCι/substrate working solution, and ATP working solution, are prepared in buffer containing 20 mM tris-HCl pH7.5, 10 mM MgCl2, 0.01% Triton X100, 250 μM EGTA and 1 mM DTT. The final concentration of PKCι used varies depending on the batch of protein but is typically 15 pM. The final concentration of peptide substrate in the assay is 100 nM. ATP is used at a final concentration of 150 μM or 25 μM in the assays containing full-length or kinase-domain PKCι respectively, which corresponds to five times or equal to the KM^APP for ATP for each enzyme, respectively. The final buffer concentration in the assay is 18 mM tris-HCl pH7.5, 9 mM MgCl2, 0.009% Triton X100, 225 μM EGTA and 0.9 mM DTT. Relevant controls are included, namely no compound and no enzyme. 5 μl PKCι/substrate working solution at 30 pM and 200 nM, respectively, is added to the wells, followed by 4 μl ATP working solution at 375 μM or 62.5 μM for full-length or kinase-domain PKCι respectively, using a 16 channel Matrix pipette. The reaction is allowed to incubate for 60 minutes at room temperature, before the reaction is stopped and developed by the addition of 20 μl IMAP™ development reagent (Molecular Devices). IMAP development reagent consists of 0.25% (v/v) IMAP progressive binding reagent, 17% (v/v) IMAP progressive binding buffer A and 3% (v/v) IMAP progressive binding buffer B. The plates are then incubated for 2 hours at room temperature before being read using an appropriate plate reader, for example a Molecular Devices HT Analyst or a BMG Pherastar. Plates are read using a fluorescence polarisation protocol with excitation at 485 nm and emission at 530 nm, and dichroic mirror at 505 nm.
Percentage inhibition values are calculated from fluorescence polarisation values, using the no compound and no enzyme control values as 0% and 100% inhibition, respectively. IC50 determination is performed with ExcelFit software (IDBS) using curve fit 205. Z′ factors are determined for each plate tested and are all above 0.5.

SMILES	pIC50
CCc1cncc2nc(-c3ccncc3)nc(N3CCNCC3)c12 [Example 136, 1-[5-ethyl-2-(pyridin-4-yl)pyrido[3,4-d]pyrimidin-4-yl]piperazine]	> 7.00
COc1ccc(CC(=O)Nc2cc(-c3nc(N[C@@H]4CCNC4)c4ccncc4n3)ccn2)cc1 [Example 335, 2-(4-Methoxy-phenyl)-N-{4-[4-((R)-pyrrolidin-3-ylamino)-pyrido[3,4-d]pyrimidin-2-yl]-pyridin-2-yl}-acetamide]	6.00 to 7.00
CC1(C)CN(c2nc(-c3ccnc4[nH]c(C(C)(C)C)cc34)nc3cncc(C4CCC4)c23)CCN1 [Example 2028, 2-(2-tert-Butyl-1H-pyrrolo[2,3-b]pyridin-4-yl)-5-cyclobutyl-4-(3,3-dimethyl-piperazin-1-yl)-pyrido[3,4-d]pyrimidine]	> 7.00
Cc1cccc(Nc2cc(-c3nc(N4CCNCC4)c4c(C5CC5)cncc4n3)ccn2)c1Cl [Example 568, (2-Chloro-3-methyl-phenyl)-[4-(5-cyclopropyl-4-piperazin-1-yl-pyrido[3,4-d]pyrimidin-2-yl)-pyridin-2-yl]-amine]	> 7.00
COc1cncc2nc(-c3ccnc(Nc4ccccc4)c3)nc(N3CCC[C@@H](O)C3)c12 [Example 428, (R)-1-[5-Methoxy-2-(2-phenylamino-pyridin-4-yl)-pyrido[3,4-d]pyrimidin-4-yl]-piperidin-3-ol]	5.00 to 6.00
Fc1cnc(Nc2c(F)cccc2F)cc1-c1nc(N2CCNCC2)c2c(C3CC3)cncc2n1 [Example 764, [4-(5-Cyclopropyl-4-piperazin-1-yl-pyrido[3,4-d]pyrimidin-2-yl)-5-fluoro-pyridin-2-yl]-(2,6-difluoro-phenyl)-amine]	> 7.00
COc1cncc2nc(-c3ccnc(Nc4cnn(-c5ccccc5)c4)c3)nc(N3CCNCC3)c12 [Example 489, 4-(5-Methoxy-4-piperazin-1-yl-pyrido[3,4-d]pyrimidin-2-yl)-N-(1-phenylpyrazol-4-yl)pyridin-2-amine]	> 7.00
N[C@H](CNc1nc(N2CCOCC2)nc2cnccc12)Cc1ccccc1 [Example 1014, (S)—N^1-(2-Morpholin-4-yl-pyrido[3,4-d]pyrimidin-4-yl)-3-phenyl-propane-1,2-diamine]	6.00 to 7.00
COc1cncc2nc(-c3ccnc(NC(=O)Cc4cccc(Cl)c4)c3)nc(N3CCN(C)CC3)c12 [Example 398, 2-(3-Chloro-phenyl)-N-{4-[5-methoxy-4-(4-methyl-piperazin-1-yl)-pyrido[3,4-d]pyrimidin-2-yl]-pyridin-2-yl}-acetamide]	6.00 to 7.00
CN1CCN(c2cccc(Nc3cc(-c4nc(N5CC[C@@H](O)C5)c5c(C6CC6)cncc5n4)ccn3)c2)CC1 [Example 738, (R)-1-(5-Cyclopropyl-2-{2-[3-(4-methyl-piperazin-1-yl)-phenylamino]-pyridin-4-yl}-pyrido[3,4-d]pyrimidin-4-yl)-pyrrolidin-3-ol]	> 7.00
COc1cncc2nc(-c3ccncc3)nc(N3CCNC(CC#N)C3)c12 (stereo not drawn) [Example 58, 2-{4-[5-methoxy-2-(pyridin-4-yl)-pyrido[3,4-d]-pyrimidin-4-yl]-piperazin-2-yl]-acetonitrile]	6.00 to 7.00
C[C@H]1CN(c2nc(-c3ccnc(Nc4ccc(F)cc4)c3)nc3cncc(C4CC4)c23)CCN1 [Example 693, {4-[5-Cyclopropyl-4-((S)-3-methyl-piperazin-1-yl)-pyrido[3,4-d]pyrimidin-2-yl]-pyridin-2-yl}-(4-fluoro-phenyl)-amine]	> 7.00
CCOc1cccc(-c2nccc3c(NC[C@@H](N)Cc4ccccc4)nc(-c4ccncc4)nc23)c1 [Example 117, N-[(2S)-2-amino-3-phenylpropyl]-8-(3-ethoxy-phenyl)-2-(pyridin-4-yl)-pyrido[3,4-d]-pyrimidin-4-amine]	5.00 to 6.00
Fc1cccnc1Nc1cc(-c2nc(N3CCNCC3)c3c(C4CC4)cncc3n2)ccn1 [Example 526, [4-(5-Cyclopropyl-4-piperazin-1-yl-pyrido[3,4-d]pyrimidin-2-yl)-pyridin-2-yl]-(3-fluoro-pyridin-2-yl)-amine]	> 7.00
CC1(C)CN(c2nc(-c3ccnc4[nH]c(C(F)(F)F)cc34)nc3cncc(C4CC4)c23)CCN1 [Example 1251, 5-Cyclopropyl-4-(3,3-dimethyl-piperazin-1-yl)-2-(2-trifluoromethyl-1H-pyrrolo[2,3-b]pyridin-4-yl)-pyrido[3,4-d]pyrimidine]	> 7.00
COc1cncc2nc(-c3ccnc(Nc4ccccc4)c3)nc(N3CCC[C@H](O)C3)c12 [Example 425, (S)-1-[5-Methoxy-2-(2-phenylamino-pyridin-4-yl)-pyrido[3,4-d]pyrimidin-4-yl]-piperidin-3-ol]	5.00 to 6.00
Fc1cnc(Nc2cc(-c3nc(N4CCNCC4)c4c(C5CC5)cncc4n3)ccn2)c(F)c1 [Example 704, [4-(5-Cyclopropyl-4-piperazin-1-yl-pyrido[3,4-d]pyrimidin-2-yl)-pyridin-2-yl]-(3,5-difluoro-pyridin-2-yl)-amine]	> 7.00
N[C@H](CNc1nc(-c2ccncc2)nc2c(Oc3ccccc3)nccc12)Cc1ccccc1 [Example 129, N-[(2S)-2-amino-3-phenylpropyl]-8-phenoxy-2-(pyridin-4-yl)pyrido[3,4-d]pyrimidin-4-amine]	6.00 to 7.00
Fc1cc(F)c(Nc2cc(-c3nc(N4CCNCC4)c4c(C5CC5)cnc(Cl)c4n3)ccn2)nc1F [Example 2178, [4-(8-Chloro-5-cyclopropyl-4-piperazin-1-yl-pyrido[3,4-d]pyrimidin-2-yl)-pyridin-2-yl]-(3,5,6,-trifluoro-pyridin-2-yl)-amine]	> 7.00
Fc1cc(F)c(F)c(Nc2cc(-c3nc(NC4CCNC4)c4c(C5CC5)cncc4n3)ccn2)n1 (stereo not drawn) [Example 2021, {5-Cyclopropyl-2-[2-(3,4,6-trifluoro-pyridin-2-ylamino)-pyridin-4-yl]-pyrido[3,4-d]pyrimidin-4-yl}-pyrrolidin-3-yl-amine]	> 7.00
Fc1ccc(Nc2cc(-c3nc(N4CCNCC4)c4c(C5CC5)cncc4n3)ccn2)nc1 [Example 271, [4-(5-Cyclopropyl-4-piperazin-1-yl-pyrido[3,4-d]pyrimidin-2-yl)-pyridin-2-yl]-(5-fluoro-pyridin-2-yl)-amine]	> 7.00
CN(c1nc(-c2ccnc(Nc3nc(F)c(F)cc3F)c2)nc2c(Cl)ncc(C3CC3)c12)C1CCNCC1 [Example 2169, {8-Chloro-5-cyclopropyl-2-[2-(3,5,6-trifluoro-pyridin-2-ylamino)-pyridin-4-yl]-pyrido[3,4-d]pyrimidin-4-yl}-methyl-piperidin-4-yl-amine]	> 7.00
COc1cncc2nc(-c3ccnc(Nc4cc(C(F)(F)F)ccn4)c3)nc(N3CCNCC3)c12 [Example 367, [4-(5-Methoxy-4-piperazin-1-yl-pyrido[3,4-d]pyrimidin-2-yl)-pyridin-2-yl]-(4-trifluoromethyl-pyridin-2-yl)-amine]	> 7.00
Fc1cccc(F)c1Nc1cc(-c2nc(NC[C@@H]3CCCN3)c3c(C4CC4)cncc3n2)ccn1 [Example 698, {5-Cyclopropyl-2-[2-(2,6-difluoro-phenylamino)-pyridin-4-yl]-pyrido[3,4-d]pyrimidin-4-yl}-(S)-1-pyrrolidin-2-ylmethyl-amine]	6.00 to 7.00
